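GI50: concentration for 50% inhibition of growth. TGI: concentration producing complete growth inhibition.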
Assays:
Assay in all cases: DTP human tumour cell line panel, 384-well format
[1] = system: A498 renal
[2] = system: A549 NSCLC
[3] = system: ACHN renal
[4] = system: BT-549 breast
[5] = system: COLO 205 colon
[6] = system: DU-145 prostate
[7] = system: EKVX NSCLC
[8] = system: HCC-2998 colon
[9] = system: HCT-116 colon
[10] = system: HCT-15 colon
[11] = system: HL-60(TB) leukemia
[12] = system: HOP-62 NSCLC
[13] = system: HOP-92 NSCLC
[14] = system: IGROV1 ovarian
[15] = system: KM12 colon
[16] = system: LOX IMVI melanoma
[17] = system: M14 melanoma
[18] = system: MALME-3M melanoma
[19] = system: MCF7 breast
[20] = system: MDA-MB-231 breast
[21] = system: MDA-MB-435 melanoma
[22] = system: MDA-MB-468 breast
[23] = system: MOLT-4 leukemia
[24] = system: NCI-H226 lung
[25] = system: NCI-H23 lung
[26] = system: NCI-H322M lung
[27] = system: NCI-H460 NSCLC
[28] = system: NCI-H522 lung
[29] = system: NCI/ADR-RES ovarian
[30] = system: OVCAR-3 ovarian
[31] = system: OVCAR-4 ovarian
[32] = system: OVCAR-5 ovarian
[33] = system: PC-3 prostate
[34] = system: RPMI-8226 leukemia
[35] = system: RXF 393 renal
[36] = system: SF-268 CNS
[37] = system: SF-295 CNS
[38] = system: SF-539 CNS
[39] = system: SK-MEL-28 melanoma
[40] = system: SK-MEL-5 melanoma
[41] = system: SN12C renal
[42] = system: SNB-19 CNS
[43] = system: SNB-75 CNS
[44] = system: SR leukemia
[45] = system: T-47D breast
[46] = system: TK-10 renal
[47] = system: U251 glioblastoma
[48] = system: UACC-257 melanoma
[49] = system: UACC-62 melanoma

Q: For CCNC(=O)C[C@@H]1N=C(c2ccc(Cl)cc2)c2cc(OC)ccc2-n2c(C)nnc21, which GI50 [1] is on record?
A: 0.662 µM

Q: What about the TGI [1] of the same compound?
A: 81.7 µM

Q: What about the GI50 [2] of the same compound?
A: 7.42 µM

Q: And the TGI [2]?
A: > 100 µM

Q: And the GI50 [3]?
A: 3.55 µM

Q: And the TGI [3]?
A: > 100 µM

Q: And the GI50 [4]?
A: 0.375 µM

Q: What about the TGI [4] of the same compound?
A: 23.3 µM

Q: What about the GI50 [5] of the same compound?
A: 0.496 µM

Q: And the TGI [5]?
A: 15.6 µM

Q: And the GI50 [6]?
A: 12.8 µM

Q: What about the TGI [6] of the same compound?
A: > 100 µM

Q: And the GI50 [7]?
A: 25.4 µM

Q: What about the TGI [7] of the same compound?
A: > 100 µM

Q: And the GI50 [8]?
A: 0.0861 µM

Q: What about the TGI [8] of the same compound?
A: 10.8 µM

Q: What about the GI50 [9] of the same compound?
A: 4.23 µM

Q: And the TGI [9]?
A: > 100 µM

Q: And the GI50 [10]?
A: 0.613 µM

Q: What about the TGI [10] of the same compound?
A: 15 µM

Q: And the GI50 [11]?
A: 0.0257 µM

Q: What about the TGI [11] of the same compound?
A: 0.131 µM

Q: What about the GI50 [12] of the same compound?
A: 0.246 µM

Q: And the TGI [12]?
A: 13.8 µM

Q: And the GI50 [13]?
A: 26.4 µM

Q: And the TGI [13]?
A: > 100 µM

Q: And the GI50 [14]?
A: 0.394 µM

Q: What about the TGI [14] of the same compound?
A: 16.7 µM

Q: What about the GI50 [15] of the same compound?
A: 5.56 µM

Q: And the TGI [15]?
A: > 100 µM

Q: What about the GI50 [16] of the same compound?
A: 0.196 µM

Q: And the TGI [16]?
A: 0.551 µM

Q: And the GI50 [17]?
A: 2.35 µM

Q: What about the TGI [17] of the same compound?
A: 55.2 µM

Q: What about the GI50 [18] of the same compound?
A: 12.3 µM

Q: What about the TGI [18] of the same compound?
A: 65.9 µM

Q: What about the GI50 [19] of the same compound?
A: < 0.01 µM

Q: And the TGI [19]?
A: > 100 µM

Q: And the GI50 [20]?
A: 5.87 µM

Q: And the TGI [20]?
A: > 100 µM

Q: And the GI50 [21]?
A: 8.67 µM

Q: And the TGI [21]?
A: 77.6 µM

Q: And the GI50 [22]?
A: 8.18 µM

Q: What about the TGI [22] of the same compound?
A: > 100 µM

Q: What about the GI50 [23] of the same compound?
A: 0.599 µM

Q: And the TGI [23]?
A: 15.7 µM

Q: And the GI50 [24]?
A: 1.63 µM

Q: What about the TGI [24] of the same compound?
A: 27.7 µM

Q: And the GI50 [25]?
A: 2.77 µM

Q: And the TGI [25]?
A: > 100 µM

Q: What about the GI50 [26] of the same compound?
A: 0.62 µM

Q: What about the TGI [26] of the same compound?
A: 34.6 µM

Q: What about the GI50 [27] of the same compound?
A: 4.05 µM

Q: And the TGI [27]?
A: > 100 µM

Q: And the GI50 [28]?
A: 0.213 µM

Q: And the TGI [28]?
A: 5.39 µM

Q: What about the GI50 [29] of the same compound?
A: 11.4 µM

Q: What about the TGI [29] of the same compound?
A: 36.2 µM

Q: What about the GI50 [30] of the same compound?
A: 0.324 µM

Q: And the TGI [30]?
A: 14.8 µM

Q: And the GI50 [31]?
A: 0.137 µM

Q: What about the TGI [31] of the same compound?
A: 0.899 µM

Q: What about the GI50 [32] of the same compound?
A: 0.296 µM

Q: And the TGI [32]?
A: 18.7 µM

Q: And the GI50 [33]?
A: 0.714 µM

Q: What about the TGI [33] of the same compound?
A: > 100 µM

Q: What about the GI50 [34] of the same compound?
A: 0.0747 µM

Q: And the TGI [34]?
A: 0.992 µM

Q: And the GI50 [35]?
A: 26 µM

Q: What about the TGI [35] of the same compound?
A: > 100 µM

Q: And the GI50 [36]?
A: 22.5 µM

Q: And the TGI [36]?
A: > 100 µM

Q: What about the GI50 [37] of the same compound?
A: 21.6 µM

Q: What about the TGI [37] of the same compound?
A: > 100 µM

Q: What about the GI50 [38] of the same compound?
A: 2.25 µM

Q: And the TGI [38]?
A: > 100 µM

Q: What about the GI50 [39] of the same compound?
A: 14.1 µM

Q: What about the TGI [39] of the same compound?
A: > 100 µM

Q: And the GI50 [40]?
A: 0.492 µM

Q: And the TGI [40]?
A: 18.2 µM

Q: And the GI50 [41]?
A: 0.742 µM

Q: What about the TGI [41] of the same compound?
A: > 100 µM

Q: And the GI50 [42]?
A: 1.63 µM

Q: And the TGI [42]?
A: > 100 µM

Q: What about the GI50 [43] of the same compound?
A: 28.3 µM

Q: What about the TGI [43] of the same compound?
A: > 100 µM

Q: What about the GI50 [44] of the same compound?
A: < 0.01 µM

Q: And the TGI [44]?
A: 58 µM

Q: What about the GI50 [45] of the same compound?
A: 15.4 µM

Q: What about the TGI [45] of the same compound?
A: > 100 µM

Q: And the GI50 [46]?
A: 0.48 µM

Q: And the TGI [46]?
A: 28.6 µM

Q: What about the GI50 [47] of the same compound?
A: 9.26 µM

Q: And the TGI [47]?
A: > 100 µM

Q: What about the GI50 [48] of the same compound?
A: 0.423 µM

Q: And the TGI [48]?
A: 30.3 µM

Q: What about the GI50 [49] of the same compound?
A: < 0.01 µM

Q: What about the TGI [49] of the same compound?
A: > 100 µM
